Like-named read-outs stand apart in the source and are kept apart here.
Tests used:
5HT1A receptor = molecular target: T1, 5HT1A receptor (Rattus norvegicus, UniProt P19327); experiment: 5HT1A receptor competition binding assay, [3H]-8-OH-DPAT, rat hippocampus
T1 construct: hippocampal homogenates that were prepared from Sprague Dawley rat hippocampus; from tissue; host or cells: rat (Sprague-Dawley) hippocampus membranes
T1 sequence (P19327 1-422): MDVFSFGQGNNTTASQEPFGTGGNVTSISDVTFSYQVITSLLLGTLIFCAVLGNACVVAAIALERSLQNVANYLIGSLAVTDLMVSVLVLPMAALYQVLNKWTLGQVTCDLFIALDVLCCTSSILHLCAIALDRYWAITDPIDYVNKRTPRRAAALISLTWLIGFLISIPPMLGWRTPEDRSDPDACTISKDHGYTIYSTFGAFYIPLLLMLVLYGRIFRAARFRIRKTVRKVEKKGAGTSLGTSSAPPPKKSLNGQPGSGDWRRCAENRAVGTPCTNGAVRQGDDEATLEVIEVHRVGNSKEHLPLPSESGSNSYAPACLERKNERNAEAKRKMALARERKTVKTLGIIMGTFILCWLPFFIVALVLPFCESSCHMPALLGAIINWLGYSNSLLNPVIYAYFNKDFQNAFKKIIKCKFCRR
Procedure: The in vitro 5HT1A binding affinities of rhenium coordinated complexes were determined in a competition assay using rat hippocampus and high-affinity 5HT1A-ligand [^3H]-8-OH-DPAT (135 Ci/mmol, NEN Life Science Inc., Cambridge, Mass.). See, Brain Res. 1995, 673, 217-225.
Male Sprague-Dawley rats (weighing 150-170 g) were sacrificed using anesthesia agent isoflurane. The brains were rapidly removed, and hippocampus, frontal cortex, hypothalamus, and striatum were hand-dissected on ice and stored at −70° C. Tissue was thawed at room temperature and homogenized using a Brinkmann Polytron tissue disrupter in 50 volumes (wt/vol) of ice-cold 50 mM Tris-HCl buffer (pH 7.4). The suspension was centrifuged twice at 27,000 g for 20 min at 4° C. The membrane pellets were resuspended in 50 volumes of (wt/vol) Tris-HCl buffer and incubated at 37° C. for 20 min in a water bath, before a final centrifugation step (27,000 g; 20 min; 4° C.). The final tissue pellets were stored at −70° C. until assayed.
Twelve concentrations of the nonradioactive rhenium complexes ranging from 1×10^−11 to 1×10^−4 and protein samples (0.15 mg of membrane protein) were incubated with 1.5 nM [^3H]-8-OH-DPAT in a total volume of 0.25 mL of Tris-HCl (50 mM, pH 7.4, 10 mM MgSO4). Incubations were carried out for 60 min at 25° C. All assays were terminated by dilution with 5 mL of ice-cold Tris-HCl (10 mM), pH 7.4, and solution were filtered through glass-fiber filters (Whatman GF/F; presoaked in 0.5% polyethyleneimine for 30 min at 25° C.). Filters were then washed three times with 5 mL of ice-cold Tris-HCl (50 mM, pH 7.4), and counted in Hionic-Fluor cocktail (Packard, Groningen, the Netherlands). The corresponding IC50 values were determined with Origin 6.0 software (OriginLab, Northampton, Mass.) and were used for the calculation of the apparent Ki values with the Cheng-Prusoff equation. See, Biochem. Pharmacol. 1973, 22, 3099-3108.
Rhenium complexes were synthesized by the reaction of [ReBr(CO)3(C4H8O)]2 with the final ligands in acetonitrile at room temperature. The in vitro 5-HT1A binding affinities of complexes Re(CO)3-L1-L9 were determined in competitive receptor binding assay using hippocampal homogenates that were prepared from Sprague Dawley rat hippocampus and the high-affinity [^3H]-8-OH-DPAT as the 5HT1A specific ligand.
The in vitro affinity of Re(CO)3-L complexes for the 5-HT1A receptors were assessed by their ability to compete with the high affinity 5HT1A radioligand [^3H]-8-OH-DPAT.

σ1 receptor = molecular target: T2, σ1 receptor (Cavia porcellus, UniProt Q60492); experiment: σ1 receptor competition binding assay, [3H]-(+)-pentazocine; parameters: species or system guinea pig
T2 construct: The membranes were prepared from guinea pig brain (minus cerebellum) as described above; from tissue; host or cells: guinea pig brain (minus cerebellum) membranes
Procedure: […] See, Mol. Neuropharmacol. 1993, 3, 117-126.
The membranes were prepared from guinea pig brain (minus cerebellum) as described above and stored at −70° C. Twelve concentrations of the nonradioactive rhenium complexes ranging from 1×10^−11 to 1×10^−3 and protein samples (0.15 mg of membrane protein) were incubated with 5 nM [^3H]-(+)-pentazocine in a total volume of 0.25 mL of Tris-HCl (50 mM, pH 8.0). Incubations were carried out for 120 min at 25° C. All assays were terminated by dilution with 5 mL of ice-cold Tris-HCl (10 mM), pH 8.0, and solution were filtered through glass-fiber filters (Whatman GF/F; presoaked in 0.5% polyethyleneimine for 30 min at 25° C.). Filters were then washed three times with 5 mL of ice-cold Tris-HCl (50 mM, pH 8.0), and counted in Hionic-Fluor cocktail (Packard, Groningen, the Netherlands). The corresponding IC50 values were determined with Origin 6.0 software (OriginLab, Northampton, Mass.) and were used for the calculation of the apparent Ki values with the Cheng-Prusoff equation. See, Biochem. Pharmacol. 1973, 22, 3099-3108.

σ2 receptor = molecular target: T3, σ2 receptor (Rattus norvegicus, UniProt Q5U3Y7); experiment: σ2 receptor competition binding assay, [3H]-DTG, rat liver membranes
T3 construct: Rat liver membranes were prepared from male Sprague-Dawley rat livers as previously described; from tissue; host or cells: rat (Sprague-Dawley) liver membranes
T3 sequence (Q5U3Y7 1-176): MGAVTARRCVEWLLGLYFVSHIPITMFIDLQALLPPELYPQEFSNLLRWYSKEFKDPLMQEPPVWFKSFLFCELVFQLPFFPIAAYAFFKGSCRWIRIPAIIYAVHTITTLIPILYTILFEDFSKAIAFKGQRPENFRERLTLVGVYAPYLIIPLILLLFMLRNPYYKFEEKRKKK
Procedure: Rat liver membranes were prepared from male Sprague-Dawley rat livers as previously described (Eur. J. Pharmacol.-Mol. Pharmacol. Sect. 1994, 268, 9-18). The in vitro σ2 receptor binding affinities of rhenium coordinated complexes were determined in a competition assay using rat livers and [^3H]-DTG (31 Ci/mmol, NEN Life Science Inc., Cambridge, Mass.) as radioligand in the presence of 10 μM 1-pyrrolidinylethyl 3,4-dichlorophenylacetate oxalate (ACT915 oxalate) to mask σ1 receptors (Bioorg. & Med. Chem. Lett. 2000, 10, 17-18). Competition assays were performed with twelve concentrations of the nonradioactive rhenium complexes ranging from […] to 1×10^−3 and protein samples (0.15 mg of membrane protein) in a total volume of 0.25 mL of Tris-HCl (50 mM, pH 8.0) for 120 min at 25° C. All other manipulations and data analysis were performed as described vide supra for the σ1—receptor assays.

[1] = system: subcutaneous B16F10 melanoma tumor; experiment: Biodistribution of 99mTc complexes in mice bearing subcutaneous B16F10 melanoma tumor; format: in vivo; details: for tumor uptake and retention (in words): mouse, in vivo
Excerpt: Biodistribution of 99 mTc complexes in mice bearing subcutaneous B16F10 melanoma tumor was studied for complexes Tc-1-Tc-6.

D2 receptors = D2 receptors (Homo sapiens, UniProt P14416); experiment: D2 receptor affinity; format: binding
[2] = quantity not named in table head, methods calculate apparent Ki (Cheng-Prusoff), read-out: 5HT1A
[3] = quantity not named in table head, methods calculate apparent Ki (Cheng-Prusoff), read-out: σ-1
[4] = quantity not named in table head, methods calculate apparent Ki (Cheng-Prusoff), read-out: σ-2

T2 sequence (Q60492 whole entry): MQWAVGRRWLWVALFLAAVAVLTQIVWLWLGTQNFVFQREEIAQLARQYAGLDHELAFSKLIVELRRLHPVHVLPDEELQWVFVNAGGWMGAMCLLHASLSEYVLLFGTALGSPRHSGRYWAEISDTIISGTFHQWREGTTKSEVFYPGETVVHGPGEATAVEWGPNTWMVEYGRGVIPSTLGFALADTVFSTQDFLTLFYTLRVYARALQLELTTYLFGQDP
Sequence of D2 receptors (P14416 whole entry): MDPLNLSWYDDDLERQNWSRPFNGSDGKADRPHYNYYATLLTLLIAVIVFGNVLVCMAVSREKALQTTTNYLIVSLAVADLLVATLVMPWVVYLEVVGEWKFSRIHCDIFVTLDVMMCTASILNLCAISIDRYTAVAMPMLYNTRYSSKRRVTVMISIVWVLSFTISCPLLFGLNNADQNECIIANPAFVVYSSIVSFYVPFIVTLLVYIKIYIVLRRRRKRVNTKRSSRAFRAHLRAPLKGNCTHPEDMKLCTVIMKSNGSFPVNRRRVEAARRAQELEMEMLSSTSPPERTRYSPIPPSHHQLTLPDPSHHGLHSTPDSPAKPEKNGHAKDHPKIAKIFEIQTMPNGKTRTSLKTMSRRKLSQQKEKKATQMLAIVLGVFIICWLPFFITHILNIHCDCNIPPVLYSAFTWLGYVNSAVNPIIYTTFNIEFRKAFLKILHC

Compound | Ki (5HT1A receptor; [2]) [nM] | Ki (σ1 receptor; [3]) [nM] | Ki (σ2 receptor; [4]) [nM] | other results
O=[C]=[Re-2]12(=[C]=O)(=[C]=O)[NH2+]CC[N+]1(CCCCCCN1CCC(c3ccccc3)CC1)Cc1ccccc1[O]2 (stereo not shown) [Re-L16a] | 629 ± 12 | 39.3 ± 1.43 | 223 ± 8.78 | 
CCCN(CCCN1CC[S][Re]2(=[O])[S]CC[N]2C(=O)C1)C1CCc2c(cccc2OC)C1 (stereo not shown) [Re-46] | 91.3 ± 4.1 |  |  | 
O=C1C[S][Re-]23(=[O])[S]CC[N+]2(CCCCCCCN2CCC(c4ccccc4)CC2)CC[N]13 (stereo not shown) [Re-33] |  |  |  | Ki (σ1 receptor): 22.9 ± 1.78 nM; Ki (σ2 receptor): 188 ± 18.8 nM
COc1cc2c(cc1OC)CN(CCCCCCN1CC[S][Re]3(=[O])[S]CC[N]3C(=O)C1)CC2 (stereo not shown) [Re-42] |  | 672 ± 17.6 | 12.1 ± 0.61 | 
[99Tc][O]c1ccccc1CN(CCN1CCCCC1)Cc1ccccn1.[C-]#[O+].[C-]#[O+].[C-]#[O+] [99 mTc-3] |  |  |  | tumor uptake and retention (in words) [1]: increase in tumor retention over time
CCCN(CCCN1CC[S][Re]2(=[O])[S]CC[N]2C(=O)C1)C1CCc2c(O)cccc2C1 (stereo not shown) [Re-46 HO] | 81.4 ± 5.24 |  |  | 
O=C1CN(CCCCCCN2CCC(c3ccccc3)CC2)CC[S][Re]2(=[O])[S]CC[N]12 (stereo not shown) [Re-40] |  | 30 ± 6.3 | 43.4 ± 0.99 | 
CCCN(CCCCCCN1CC[S][Re]2(=[O])[S]CC[N]2C(=O)C1)C1CCc2c(cccc2OC)C1 (stereo not shown) [Re-47] | 15.4 ± 4.06 | 64.3 ± 1.27 | 244 ± 8.56 | 
COc1ccccc1C1CCN(CCCCCC[N+]23CC[NH2+][Re-2]2(=[C]=O)(=[C]=O)(=[C]=O)[O]c2ccccc2C3)CC1 (stereo not shown) [Re-L17a] | 48 ± 5 |  |  | 
COc1cc2c(cc1OC)CN(CCCCCC[N+]13Cc4ccccc4[O][Re-2]1(=[C]=O)(=[C]=O)(=[C]=O)[n+]1ccccc1C3)CC2 (stereo not shown) [Re-L12] | 940 ± 216 | 4400 ± 280 | 3.37 | 
COc1ccccc1C1CCN(CCCCCC[N+]23CC[N+](C)(C)[Re-2]2(=[C]=O)(=[C]=O)(=[C]=O)[O]c2ccccc2C3)CC1 (stereo not shown) [Re-L17b] | 18 ± 8 |  |  | 
COc1cc2c(cc1OC)CN(CCCCCCN1CC[S][Re]3(=[O])[S]CC[N]3C(=O)C1)C2 (stereo not shown) [Re-43] |  | 1480 ± 227 | 11.5 ± 0.2 | 
COc1ccccc1C1CCN(CCCCCC[N+]23Cc4ccccc4[O][Re-2]2(=[C]=O)(=[C]=O)(=[C]=O)[n+]2ccccc2C3)CC1 (stereo not shown) [Re-L11] | 120 ± 21 |  |  | 
[99Tc][O]c1ccccc1CN(CCCN1CCCCC1)Cc1ccccn1.[C-]#[O+].[C-]#[O+].[C-]#[O+] [Tc-4] |  |  |  | tumor uptake and retention (in words) [1]: increase in tumor retention over time
CCCN(CCCCCCN1CC[S][Re]2(=[O])[S]CC[N]2C(=O)C1)C1CCc2c(O)cccc2C1 (stereo not shown) [Re-47 HO] | 26 ± 2.71 |  |  | 
CCN(CC)CCN(Cc1ccccn1)Cc1ccccc1[O][99Tc].[C-]#[O+].[C-]#[O+].[C-]#[O+] [99 mTc-2] |  |  |  | tumor uptake ([1]; 1 h postinjection): 3.2 % ID/g; tumor retention over a 6 h period ([1]; share of tumor uptake retained over 6 h): 65%
O=C1C[S][Re-]23(=[O])[S]CC[N+]2(CCCCCCN2CCC(c4ccccc4)CC2)CC[N]13 (stereo not shown) [Re-32] |  | 29.7 ± 4.31 | 223 ± 6.54 | 
COc1ccccc1N1CCN(CCC[N+]23Cc4ccccc4[O][Re-5]2([C]#[O+])([C]#[O+])([C]#[O+])[n+]2ccccc2C3)CC1 (stereo not shown) [Re-L1] |  |  |  | Ki (5HT1A receptor; Example 62, Re(CO)3-L complexes, [3H]-8-OH-DPAT, rat hippocampal homogenates, read-out: Ki, 5-HT1A receptor affinity): 83.2 ± 2.2 nM
CCCN(CCCCCCN1CC[S][Re]2(=[O])[S]CC[N]2C(=O)C1)C1CCc2cccc(O)c2C1 (stereo not shown) [Re-45-HO] | 0.42 ± 0.08 |  |  | 
COc1cc2c(cc1OC)CN(CCCCCC[N+]13Cc4ccccc4[O][Re-2]1(=[C]=O)(=[C]=O)(=[C]=O)[n+]1ccccc1C3)C2 (stereo not shown) [Re-L13] |  | 5310 ± 973 | 35.6 ± 2.83 | 
[99Tc][O]c1ccccc1CN(CCCCCCN1CCCCC1)Cc1ccccn1.[C-]#[O+].[C-]#[O+].[C-]#[O+] [Tc-5] |  |  |  | tumor uptake and retention (in words) [1]: increase in tumor retention over time
C[N+]1(C)CC[N+]2(CCCCCCN3CCC(c4ccccc4)CC3)Cc3ccccc3[O][Re-2]12(=[C]=O)(=[C]=O)=[C]=O (stereo not shown) [Re-L16b] | 439 ± 121 | 9.12 ± 0.14 | 6420 ± 387 | 
O=C1CN(CCCCCCN2Cc3ccccc3C2)CC[S][Re]2(=[O])[S]CC[N]12 (stereo not shown) [Re-44] |  | 64 ± 5.9 | 61 ± 3.91 | 
CCN(CC)CC[N+]12CC[N+](CC)(CC)[99Tc-5]1([C]#[O+])([C]#[O+])([C]#[O+])[O]c1ccccc1C2 (stereo not shown) [99 mTc-6] |  |  |  | tumor uptake and retention (in words) [1]: poor tumor uptake and retention
O=C1C[N+]2(CCCCCCCN3CCC(c4ccccc4)CC3)CC[S][Re-]23(=[O])[S]CC[N]13 (stereo not shown) [Re-41] |  |  |  | Ki (σ1 receptor): 7.6 ± 0.67 nM; Ki (σ2 receptor): 21.25 ± 0.19 nM
CCCN(CCCCCC[N+]12CC[S][Re-]13(=[O])[S]CC[N]3C(=O)C2)C1CCc2cccc(OC)c2C1 (stereo not shown) [Re-45] |  |  |  | Ki (5HT1A receptor): 1.21 ± 0.13 nM; Ki (σ1 receptor): 41 ± 3.58 nM; Ki (σ2 receptor): 442 ± 106 nM; Ki (D2 receptors): 1200 nM
